Series [1] relates to H9C2 cells. Briefly: Toxicity on normal H9C2 cells (MTT assay). The class given is cell-based. The note with it: MTT; for viability at 6.25 µM / viability at 12.5 µM / viability at 25 µM / viability at 50 µM / Survival Rate (%): H9C2 cells; for viability at 6.25 µM / viability at 12.5 µM / viability at 25 µM / viability at 50 µM: read-out: Survival Rate (%); for IC50: normal H9C2 cells. How it is done:
To study cytotoxicity on normal cells, the cytotoxicity of compounds against normal H9C2 cells were tested.
(§1) The SH-SY5Y ([…]) and H9C2 ([…]) cell lines were obtained from the Chinese Academy of Medical Sciences and Peking Union Medical College. All of the cell lines were grown in dulbecco’s modified eagle medium (DMEM) with 10% (v/v) fetal bovine serum (FBS) and 1% (v/v) penicillin/streptomycin (Thermo Technologies, New York, NY, USA), under a humidified atmosphere containing 5% CO2 at 37 °C. The baicalein derivatives were dissolved in DMSO (Sigma, St. Louis, MO, USA) and added at various concentrations to the cell culture.
(§2) The protective effect of these compounds was evaluated on SH-SY5Y and H9C2 cell lines via the MTT method. The cells growing in the logarithmic phase were cultured in 96-well plates at a density 3 × 10^3 cells/well and incubated for 24 h. Then each well was treated with the required concentrations (50 µM concentrations, 25 µM concentrations, 12.5µM concentrations, 6.25 µM concentrations, and 3.125 µM concentrations) of baicalein derivatives, and incubated 36 h at 37 °C with 5% CO2. After that, the cells were induced by H2O2 (final concentration, […]) for 12 h. Control-differentiated cells were injected with new growth media at equal amounts. Before […] MTT solution (5 mg/mL) was added to each well, the cell culture fluid was discarded, and […] fresh cell culture fluid was added. The plate was incubated for a further 4 h at 37 °C. The cell supernatant medium was removed carefully, without disturbing the attached cells, and formazan crystals were solubilized by adding 150 μL DMSO into each well. The absorbance was measured at 490 nm with a plate reader (BIORAD 550 spectrophotometer, Bio-rad Life Science Development Ltd., Beijing, China). H2O2 was dissolved in DMEM medium. Wells without drugs were used as blanks. The EC50 values were defined as the concentrations that causes the maximum effect of 50%; IC50 values were defined as the concentration of compound which gives 50% growth inhibition, and were calculated using the GraphPad Prism 5. The proliferation rates of damaged SH-SY5Y cells were calculated in the following formula (1): [OD490 (compound) − OD490 (CoCl2)]/[OD490 (NGF) − OD490 (CoCl2)] × 100%(1) The EC50 values were using the equation −pEC50 = log Cmax − log 2 × (ΣP − 0.75 + 0.25Pmax + 0.25Pmin)(2) where Cmax is the maximum concentration, ΣP is the sum of proliferation rates, Pmax is the maximum value of the proliferation rate, and Pmin is the minimum value of the proliferation rate. Cell viability was expressed as a percentage of the control.
The inhibition rate was calculated in the following equation: % inhibition = 1 − (Sample group OD/Control group OD) × 100%(3)
For orientation: Formazan colour is commonly taken as a measure of viable cells.

Series [2] relates to injured SH-SY5Y cells. Description: Protective effect against tert-butyl hydroperoxide-induced SH-SY5Y neurotoxicity cells (MTT assay).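 For Proliferation Rate (%): 0% equals CoCl2-injured cells and 100% equals NGF-treated cells.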 The class given is cell-based. The note with it: for viability at 3.125 µM / viability at 6.25 µM / viability at 12.5 µM / viability at 25 µM / viability at 50 µM / Proliferation Rate (%): injured SH-SY5Y cells; for viability at 3.125 µM / viability at 6.25 µM / viability at 12.5 µM / viability at 25 µM / viability at 50 µM: read-out: Proliferation Rate (%); for EC50: tert-butyl hydroperoxide-induced SH-SY5Y neurotoxicity, read-out: EC50 for protecting injured SH-SY5Y cells. Here is the method:
The protective effects of baicalein derivatives in vitro was evaluated against tert-butyl, hydroperoxide-induced, SH-SY5Y neurotoxicity cells using an MTT assay. In addition, their toxicity evaluation was tested on normal H9C2 cells. The resulting proliferation rates (%) at different concentrations, as well as their 50% effective concentrations (EC50) for protecting damaged SH-SY5Y cells of the baicalein amino acid derivatives, are summarized in Table 2.
as §1, §2

Series [3] concerns H9C2 cells. Description: Toxicity on normal H9C2 cells (MTT assay). Format: cell-based. The note with it: for viability at 100 µM: read-out: Survival Rate (%); for Survival Rate (%): 100 µM.

Read-outs that look alike come from different tables or passages of the source. Bounds are passed on as bounds.

Usually melting point stands for the temperature, or range, at which the solid turns liquid. By IC50 is commonly meant the concentration that gives 50% inhibition. What is called EC50 is the concentration at which the effect is half-maximal.

The compound `CN(CC(=O)Oc1cc2oc(-c3ccccc3)cc(=O)c2c(O)c1O)C(=O)OC(C)(C)C` [Compound 5, 5,6-dihydroxy-4-oxo-2-phenyl-4H-chromen-7-yl 2{[(tert-butoxy)carbonyl](methyl)amino}acetate] gave a melting point of 218 °C. Also, the viability at 6.25 µM in series [1] (6.25 µM) stood at 116%. For the same compound, in series [1] (12.5 µM), the viability at 12.5 µM worked out at 116%. The viability at 25 µM in series [1] (25 µM) worked out at 105%. Besides, in series [1] (50 µM), the viability at 50 µM amounted to 95.1%. Moreover, the IC50 in series [1] is above 100 µM. In addition, in series [2] (Homo sapiens, 3.125 µM), the viability at 3.125 µM is 28.4%. Besides, in series [2] (Homo sapiens, 6.25 µM), the viability at 6.25 µM amounted to 37.6%. In addition, in series [2] (Homo sapiens, 12.5 µM), the viability at 12.5 µM is 76.4%. The viability at 25 µM in series [2] (Homo sapiens, 25 µM) is 78.1%. In addition, in series [2] (Homo sapiens, 50 µM), the viability at 50 µM was found to be 60.7%. In addition, in series [2] (Homo sapiens), the EC50 was 9.96 µM. Moreover, the viability at 100 µM in series [3] was found to be 76.9%.
“1-tert-butyl 2-(5,7-dihydroxy-4-oxo-2-phenyl-chroman-6-yl) pyrrolidine-1,2-dicarboxylate [Compound 11]”: the “Survival Rate (%)” value in series [1] (6.25 µM) was 70.98%; in series [1] (12.5 µM), 67.32%; in series [1] (25 µM) it was 61.98%; in series [1] (50 µM), 60.67%; in series [3], 45.75%. The compound also returned an IC50 in series [1] of 95.2 µM. The “Proliferation Rate (%)” value in series [2] (3.125 µM) came to 47.94%; in series [2] (6.25 µM), 86.25%; in series [2] (12.5 µM), 78.16%; in series [2] (25 µM), 74.48%; in series [2] (50 µM) it was 64.80%. In addition, the EC50 in series [2] worked out at 5.82 µM.
Turning to “5,6-dihydroxy-4-oxo-2-phenyl-chroman-7-yl 2-{[(tert-butoxy)carbonyl]amino}-3-methyl-pentanoate [Compound 10]”, the “Survival Rate (%)” value in series [1] (6.25 µM) was 194.73%; in series [1] (12.5 µM), 179.84%; in series [1] (25 µM), 169.33%; in series [1] (50 µM), 152.13%; in series [3], 141.70%. The IC50 in series [1] is above 100 µM. The “Proliferation Rate (%)” value in series [2] (3.125 µM) turned out to be 75.23%; in series [2] (6.25 µM) it was 77.21%; in series [2] (12.5 µM), 79.27%; in series [2] (25 µM) it was 74.55%; in series [2] (50 µM), 63.22%. Further, the EC50 in series [2] amounted to 5.07 µM.
For the compound `CC1=NN(c2ccccc2)C(=O)C1` [Edaravone, reference compound], the viability at 3.125 µM in series [2] (Homo sapiens, 3.125 µM) is 61.4%. Besides, in series [2] (Homo sapiens, 6.25 µM), the viability at 6.25 µM was determined as 85.8%. Further, in series [2] (Homo sapiens, 12.5 µM), the viability at 12.5 µM stood at 76.1%. Further, the viability at 25 µM in series [2] (Homo sapiens, 25 µM) came out at 69.9%. The viability at 50 µM in series [2] (Homo sapiens, 50 µM) is 60.7%. Also, the EC50 in series [2] (Homo sapiens) turned out to be 5.62 µM.
Turning to `O=c1cc(-c2ccccc2)oc2cc(O)c(O)c(O)c12` [Baicalein, 5,6,7-trihydroxyflavone], the viability at 6.25 µM in series [1] (6.25 µM) is 212%; in series [2] (Homo sapiens, 6.25 µM) it was 35.1%. Besides, the viability at 12.5 µM in series [1] (12.5 µM) came to 198%; in series [2] (Homo sapiens, 12.5 µM), 29.9%. Moreover, the viability at 25 µM was 179% in series [1] (25 µM) and 28.4% in series [2] (Homo sapiens, 25 µM). Besides, the viability at 50 µM in series [1] (50 µM) amounted to 170%; in series [2] (Homo sapiens, 50 µM) it was 11.7%. Moreover, in series [1], the IC50 was above 100 µM. Also, in series [2] (Homo sapiens, 3.125 µM), the viability at 3.125 µM turned out to be 54.7%. Further, the EC50 in series [2] (Homo sapiens) came out at 24.8 µM. Also, in series [3], the viability at 100 µM amounted to 168%.
Regarding `CC(C)(C)OC(=O)NC(Cc1ccccc1)C(=O)Oc1c(O)cc2oc(-c3ccccc3)cc(=O)c2c1O` (stereo not shown) [Compound 6, 5,7-dihydroxy-4-oxo-2-phenyl-4H-chromen-6-yl 2-{[(tert-butoxy)carbonyl]amino}-3-phenylpropanoate], the viability at 6.25 µM in series [1] (6.25 µM) is 157%; in series [2] (Homo sapiens, 6.25 µM) it was 20%. For the same compound, the viability at 12.5 µM is 154% in series [1] (12.5 µM) and 24.8% in series [2] (Homo sapiens, 12.5 µM). Further, the viability at 25 µM was determined as 154% in series [1] (25 µM) and 21.6% in series [2] (Homo sapiens, 25 µM). The viability at 50 µM was found to be 137% in series [1] (50 µM) and 16.7% in series [2] (Homo sapiens, 50 µM). The compound further yielded an IC50 in series [1] above 100 µM. Moreover, the viability at 3.125 µM in series [2] (Homo sapiens, 3.125 µM) amounted to 8.61%. Besides, the EC50 in series [2] (Homo sapiens) was 42 µM. Also, in series [3], the viability at 100 µM is 122%.

Values taken from article PMC6832219, “Synthesis of Novel Baicalein Amino Acid Derivatives and Biological Evaluation as Neuroprotective Agents” (Molecules, 2019).
